{"source": "patent US9695155B2", "about": "“Herbicidal substituted pyrimidinyloxy benzene compounds” (E. I. DU PONT DE NEMOURS AND COMPANY, priority 2013, dated 2017)", "key": {"lambsquarters": {"tested_on": "lambsquarters", "assay": "Test C postemergence", "format": "in vivo, Chenopodium album", "details": "Chenopodium album, post-emergence", "outline": "(§1)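 Sown in loam/sand → sprayed pre-emergence; or grown to 1–4 leaves in peat mix → sprayed post-emergence. Same solvent/surfactant formulation both ways. Greenhouse 13–15 d. Score 0–100 visual.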"}, "oilseed rape": {"tested_on": "oilseed rape", "assay": "Test C postemergence", "format": "in vivo, Brassica napus", "details": "Brassica napus, post-emergence", "outline": "as §1"}, "wheat, winter": {"tested_on": "wheat, winter", "assay": "Test C postemergence", "format": "in vivo, Triticum aestivum", "details": "Triticum aestivum, post-emergence", "outline": "as §1"}, "galium": {"tested_on": "galium", "assay": "Test C preemergence", "format": "in vivo, Galium aparine", "details": "Galium, pre-emergence", "outline": "as §1"}, "yellow nutsedge": {"tested_on": "yellow nutsedge", "assay": "Test C preemergence", "format": "in vivo, Cyperus esculentus", "details": "Cyperus, pre-emergence", "outline": "as §1"}, "morningglory [1]": {"tested_on": "morningglory", "assay": "Test C preemergence", "format": "in vivo, Ipomoea coccinea", "details": "Ipomoea, pre-emergence", "outline": "as §1"}, "ragweed": {"tested_on": "ragweed", "assay": "Test C postemergence", "format": "in vivo, Ambrosia elatior", "details": "Ambrosia artemisiifolia, post-emergence", "outline": "as §1"}, "large (Lg) crabgrass": {"tested_on": "large (Lg) crabgrass", "assay": "Test A postemergence", "format": "in vivo, Digitaria sanguinalis", "details": "Digitaria sanguinalis, post-emergence, 240 h", "outline": "(§2)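 Visual injury scored 0–100 (100 = complete control) against untreated controls about 10 days after treatment in a greenhouse. Test chemicals, formulated with surfactant in non-phytotoxic solvent, were sprayed on soil preemergence or on 2-10 cm, one- to two-leaf plants postemergence.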"}, "barnyardgrass": {"tested_on": "barnyardgrass", "assay": "Test B flooded paddy test", "format": "in vivo, Echinochloa crus-galli", "details": "Echinochloa crus-galli; Flood, 250 g ai/ha; 0 to 100 scale where 0 is no effect and 100 is complete control; read-out: Plant response rating, Barnyardgrass", "outline": "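Greenhouse flooded-pot test: compounds dosed into 3 cm standing water over 2-leaf plants, flood held constant. Rated visually after 13–15 days on 0–100 (complete control = 100); a dash marks no test result.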"}, "velvetleaf": {"tested_on": "velvetleaf", "assay": "Test A postemergence", "format": "in vivo, Abutilon theophrasti", "details": "Abutilon theophrasti, post-emergence, 240 h", "outline": "as §2"}, "corn": {"tested_on": "corn", "assay": "Test C preemergence", "format": "in vivo, Zea mays", "details": "Zea mays, pre-emergence", "outline": "as §1"}, "soybean": {"tested_on": "soybean", "assay": "Test C postemergence", "format": "in vivo, Glycine max", "details": "Glycine max, post-emergence", "outline": "as §1"}, "morningglory [2]": {"tested_on": "morningglory", "assay": "Test C postemergence", "format": "in vivo, Ipomoea coccinea", "details": "Ipomoea, post-emergence", "outline": "as §1"}}}
{"smiles": "N#Cc1cccc(Oc2ncc(Cl)cn2)c1-n1cc(Br)cn1", "note": "[Compound 52, 2-(4-bromo-1H-pyrazol-1-yl)-3-[(5-chloro-2-pyrimidinyl)oxy]benzonitrile]", "values": [{"measurement": "pest or weed control at 125 g/ha", "setting": "lambsquarters; 125 g ai/ha, postemergence, read-out: Plant response rating (0 to 100), Lambsquarters", "result": 90, "unit": "%"}, {"measurement": "pest or weed control at 250 g/ha", "setting": "lambsquarters; 250 g ai/ha, postemergence, read-out: Plant response rating (0 to 100), Lambsquarters", "result": 100, "unit": "%"}, {"measurement": "pest or weed control at 31 g/ha", "setting": "lambsquarters; Postemergence, 31 g ai/ha, scale 0 to 100 (0 no effect, 100 complete control), 13 to 15 days, read-out: Plant response rating, Lambsquarters", "result": 85, "unit": "%"}, {"measurement": "pest or weed control at 62 g/ha", "setting": "lambsquarters; Postemergence, 62 g ai/ha, scale 0 to 100 (0 no effect, 100 complete control), read-out: Plant response rating, Lambsquarters", "result": 90, "unit": "%"}, {"measurement": "plant injury at 125 g/ha", "setting": "oilseed rape; 125 g ai/ha, postemergence, read-out: Plant response rating (0 to 100), Oilseed Rape", "result": 70, "unit": "%"}, {"measurement": "plant injury at 250 g/ha", "setting": "oilseed rape; 250 g ai/ha, postemergence, read-out: Plant response rating (0 to 100), Oilseed Rape", "result": 85, "unit": "%"}, {"measurement": "plant injury at 31 g/ha", "setting": "oilseed rape; Postemergence, 31 g ai/ha, scale 0 to 100 (0 no effect, 100 complete control), 13 to 15 days, read-out: Plant response rating, Oilseed Rape", "result": 25, "unit": "%"}, {"measurement": "plant injury at 62 g/ha", "setting": "oilseed rape; Postemergence, 62 g ai/ha, scale 0 to 100 (0 no effect, 100 complete control), read-out: Plant response rating, Oilseed Rape", "result": 40, "unit": "%"}, {"measurement": "plant injury at 125 g/ha", "setting": "wheat, winter; 125 g ai/ha, postemergence, read-out: Plant response rating (0 to 100), Wheat", "result": 5, "unit": "%"}, {"measurement": "plant injury at 250 g/ha", "setting": "wheat, winter; 250 g ai/ha, postemergence, read-out: Plant response rating (0 to 100), Wheat", "result": 5, "unit": "%"}, {"measurement": "plant injury at 31 g/ha", "setting": "wheat, winter; Postemergence, 31 g ai/ha, scale 0 to 100 (0 no effect, 100 complete control), 13 to 15 days, read-out: Plant response rating, Wheat", "result": 0, "unit": "%"}, {"measurement": "plant injury at 62 g/ha", "setting": "wheat, winter; Postemergence, 62 g ai/ha, scale 0 to 100 (0 no effect, 100 complete control), read-out: Plant response rating, Wheat", "result": 0, "unit": "%"}, {"measurement": "pest or weed control at 62 g/ha", "setting": "galium; 62 g ai/ha, preemergence, scale 0 (no effect) to 100 (complete control), read-out: Galium plant response rating", "result": 100, "unit": "%"}, {"measurement": "pest or weed control at 125 g/ha", "setting": "galium; 125 g ai/ha, preemergence, scale 0 (no effect) to 100 (complete control), read-out: Galium plant response rating", "result": 100, "unit": "%"}, {"measurement": "pest or weed control at 250 g/ha", "setting": "galium; 250 g ai/ha, preemergence, scale 0 (no effect) to 100 (complete control), read-out: Galium plant response rating", "result": 100, "unit": "%"}, {"measurement": "pest or weed control at 31 g/ha", "setting": "galium; Preemergence, 31 g ai/ha, scale 0 to 100, 0 no effect, 100 complete control, read-out: Plant response rating, Galium", "result": 100, "unit": "%"}, {"measurement": "pest or weed control at 62 g/ha", "setting": "yellow nutsedge; 62 g ai/ha, preemergence, scale 0 (no effect) to 100 (complete control), read-out: Nutsedge, Yellow plant response rating", "result": 10, "unit": "%"}, {"measurement": "pest or weed control at 125 g/ha", "setting": "yellow nutsedge; 125 g ai/ha, preemergence, scale 0 (no effect) to 100 (complete control), read-out: Nutsedge, Yellow plant response rating", "result": 40, "unit": "%"}, {"measurement": "pest or weed control at 250 g/ha", "setting": "yellow nutsedge; 250 g ai/ha, preemergence, scale 0 (no effect) to 100 (complete control), read-out: Nutsedge, Yellow plant response rating", "result": 45, "unit": "%"}, {"measurement": "pest or weed control at 31 g/ha", "setting": "yellow nutsedge; Preemergence, 31 g ai/ha, scale 0 to 100, 0 no effect, 100 complete control, read-out: Plant response rating, Nutsedge, Yellow", "result": 0, "unit": "%"}, {"measurement": "pest or weed control at 62 g/ha", "setting": "morningglory [1]; 62 g ai/ha, preemergence, scale 0 (no effect) to 100 (complete control), read-out: Morningglory plant response rating", "result": 95, "unit": "%"}, {"measurement": "pest or weed control at 125 g/ha", "setting": "morningglory [1]; 125 g ai/ha, preemergence, scale 0 (no effect) to 100 (complete control), read-out: Morningglory plant response rating", "result": 100, "unit": "%"}, {"measurement": "pest or weed control at 250 g/ha", "setting": "morningglory [1]; 250 g ai/ha, preemergence, scale 0 (no effect) to 100 (complete control), read-out: Morningglory plant response rating", "result": 100, "unit": "%"}, {"measurement": "pest or weed control at 31 g/ha", "setting": "morningglory [1]; Preemergence, 31 g ai/ha, scale 0 to 100, 0 no effect, 100 complete control, read-out: Plant response rating, Morningglory", "result": 55, "unit": "%"}, {"measurement": "pest or weed control at 125 g/ha", "setting": "ragweed; 125 g ai/ha, postemergence, read-out: Plant response rating (0 to 100), Ragweed", "result": 80, "unit": "%"}, {"measurement": "pest or weed control at 250 g/ha", "setting": "ragweed; 250 g ai/ha, postemergence, read-out: Plant response rating (0 to 100), Ragweed", "result": 95, "unit": "%"}, {"measurement": "pest or weed control at 31 g/ha", "setting": "ragweed; Postemergence, 31 g ai/ha, scale 0 to 100 (0 no effect, 100 complete control), 13 to 15 days, read-out: Plant response rating, Ragweed", "result": 40, "unit": "%"}, {"measurement": "pest or weed control at 62 g/ha", "setting": "ragweed; Postemergence, 62 g ai/ha, scale 0 to 100 (0 no effect, 100 complete control), read-out: Plant response rating, Ragweed", "result": 45, "unit": "%"}, {"measurement": "pest or weed control at 125 g/ha", "setting": "large (Lg) crabgrass; 125 g ai/ha, 0 to 100 scale where 0 is no effect and 100 is complete control, read-out: Plant response rating, Crabgrass, Large", "result": 90, "unit": "%"}, {"measurement": "pest or weed control at 500 g/ha", "setting": "large (Lg) crabgrass; 500 g ai/ha, 0 to 100 scale, 0 no effect, 100 complete control, read-out: Plant response rating Crabgrass, Large", "result": 100, "unit": "%"}, {"measurement": "pest or weed control at 250 g/ha", "setting": "barnyardgrass", "result": 30, "unit": "%"}, {"measurement": "pest or weed control at 125 g/ha", "setting": "velvetleaf; 125 g ai/ha, 0 to 100 scale where 0 is no effect and 100 is complete control, read-out: Plant response rating, Velvetleaf", "result": 100, "unit": "%"}, {"measurement": "pest or weed control at 500 g/ha", "setting": "velvetleaf; 500 g ai/ha, 0 to 100 scale, 0 no effect, 100 complete control, read-out: Plant response rating Velvetleaf", "result": 100, "unit": "%"}, {"measurement": "plant injury at 62 g/ha", "setting": "corn; 62 g ai/ha, preemergence, scale 0 (no effect) to 100 (complete control), read-out: Corn plant response rating", "result": 5, "unit": "%"}, {"measurement": "plant injury at 125 g/ha", "setting": "corn; 125 g ai/ha, preemergence, scale 0 (no effect) to 100 (complete control), read-out: Corn plant response rating", "result": 60, "unit": "%"}, {"measurement": "plant injury at 250 g/ha", "setting": "corn; 250 g ai/ha, preemergence, scale 0 (no effect) to 100 (complete control), read-out: Corn plant response rating", "result": 70, "unit": "%"}, {"measurement": "Corn plant response rating (crop injury, 0 = no effect, 100 = complete kill) at 31 g/ha", "setting": "corn; Preemergence, 31 g ai/ha, scale 0 to 100, 0 no effect, 100 complete control", "result": 5, "unit": "%"}, {"measurement": "Soybean plant response rating (crop injury, 0-100 scale) at 125 g/ha", "setting": "soybean; 125 g ai/ha, postemergence, read-out: Plant response rating (0 to 100), Soybean", "result": 95, "unit": "%"}, {"measurement": "Soybean plant response rating (crop injury, 0-100 scale) at 250 g/ha", "setting": "soybean; 250 g ai/ha, postemergence", "result": 95, "unit": "%"}, {"measurement": "Soybean plant response rating (crop injury, 0-100 scale) at 31 g/ha", "setting": "soybean; Postemergence, 31 g ai/ha, scale 0 to 100 (0 no effect, 100 complete control), 13 to 15 days", "result": 40, "unit": "%"}, {"measurement": "Soybean plant response rating (crop injury, 0-100 scale) at 62 g/ha", "setting": "soybean; Postemergence, 62 g ai/ha, scale 0 to 100 (0 no effect, 100 complete control)", "result": 90, "unit": "%"}, {"measurement": "pest or weed control at 125 g/ha", "setting": "morningglory [2]; 125 g ai/ha, postemergence, read-out: Plant response rating (0 to 100), Morningglory", "result": 95, "unit": "%"}, {"measurement": "pest or weed control at 250 g/ha", "setting": "morningglory [2]; 250 g ai/ha, postemergence, read-out: Plant response rating (0 to 100), Morningglory", "result": 100, "unit": "%"}, {"measurement": "pest or weed control at 31 g/ha", "setting": "morningglory [2]; Postemergence, 31 g ai/ha, scale 0 to 100 (0 no effect, 100 complete control), 13 to 15 days, read-out: Plant response rating, Morningglory", "result": 80, "unit": "%"}, {"measurement": "pest or weed control at 62 g/ha", "setting": "morningglory [2]; Postemergence, 62 g ai/ha, scale 0 to 100 (0 no effect, 100 complete control), read-out: Plant response rating, Morningglory", "result": 80, "unit": "%"}]}
